Blank lines part the entries; values can stand above or below the molecule they belong to.
Columns and labels:
[1] = Solubility of Compound I in solvents at neutral/acidic pH; format: physicochemical
LPA1 receptor [2] = target: T1, LPA1 receptor (Mus musculus, UniProt P61793); details: mouse model of skin fibrosis; cited from earlier work
T1 construct: from tissue; host or cells: living mouse (skin), endogenous receptor

LPA1 receptor [3] = target: T2, LPA1 receptor (Homo sapiens, UniProt Q92633); details: patients with dcSSc; cited from earlier work
T2 construct: host or cells: patients (endogenous receptor), clinical study cited from Allanore et al. 2018

[4] = Physical stability of solid state forms at 80° C./75% RH, examined by FTIR; format: physicochemical; details: 1 week, open glass vials
Description: The physical stability of Forms 1, 2, and 3 was investigated at 80° C./75% RH in order to determine if interconversion was observed. The samples were examined by FTIR after stressing 1 week in open glass vials.

[5] = Form conversion when slurried in solvent, determined by FTIR; format: physicochemical; details: slurried in MEK or 1-pentanol at 60° C. or 70° C.
[6] = Solubility of the polymorphs at pH 7.4 in phosphate buffer; format: physicochemical; details: pH 7.4 phosphate buffer, 25° C.
Description: The solubility of the different polymorphs was determined at pH 7.4 in phosphate buffer at 25° C. Samples were analyzed as a function of time for each form to determine the equilibrium values. The residual solids from each sample were analyzed to verify that the form was unchanged during the experiment. The concentration (mg/mL) versus time data is listed below for each form: […]

T2 sequence (Q92633 whole entry): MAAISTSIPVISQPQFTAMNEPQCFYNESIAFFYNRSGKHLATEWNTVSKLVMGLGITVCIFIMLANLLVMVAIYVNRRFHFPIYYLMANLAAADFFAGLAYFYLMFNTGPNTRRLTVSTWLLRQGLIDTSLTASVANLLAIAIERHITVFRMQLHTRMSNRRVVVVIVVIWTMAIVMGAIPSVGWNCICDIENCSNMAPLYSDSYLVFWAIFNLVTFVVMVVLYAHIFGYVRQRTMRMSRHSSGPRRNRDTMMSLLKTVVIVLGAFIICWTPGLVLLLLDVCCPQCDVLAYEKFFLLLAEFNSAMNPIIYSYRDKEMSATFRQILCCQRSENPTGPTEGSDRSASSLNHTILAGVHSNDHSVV
T1 sequence (P61793 whole entry): as the sequence (Q92633 whole entry) above, with I4A, I8S, P22Q, H40Y, I61V, E193D, N194H, I269V, S331N, T335N counted along it

solubility in most solvents [1]: highly insoluble
Compound: COc1ccc(C(=O)NC2(C(=O)O)Cc3ccccc3C2)cc1OCCc1cccc(C)c1 [Compound I, 2-(4-methoxy-3-(3-methylphenethoxy)benzamido)-2,3-dihydro-1H-indene-2-carboxylic acid]
collagen content (LPA1 receptor [2]): reduced collagen content
dermal thickening (LPA1 receptor [2]): reversed dermal thickening
myofibroblast differentiation (LPA1 receptor [2]): significantly inhibited myofibroblast differentiation
outcome measures (LPA1 receptor [3]): improved outcome measures
target engagement (LPA1 receptor [3]): demonstrated target engagement
tolerability (LPA1 receptor [3]): well tolerated

changes in FTIR spectrum after stressing (physical stability) [4]: unchanged FTIR
form conversion in slurry [5]: converts to crystalline Form 2
Compound: COc1ccc(C(=O)NC2(C(=O)O)Cc3ccccc3C2)cc1OCCc1cccc(C)c1 [Form 1, 2-(4-methoxy-3-(3-methylphenethoxy)benzamido)-2,3-dihydro-1H-indene-2-carboxylic acid]

24 hour solubility result greater than Form 1 ([6]; 24 hour): more than 30%
Compound: COc1ccc(C(=O)NC2(C(=O)O)Cc3ccccc3C2)cc1OCCc1cccc(C)c1 [Form 2, 2-(4-methoxy-3-(3-methylphenethoxy)benzamido)-2,3-dihydro-1H-indene-2-carboxylic acid]

equilibrium solubility at 24 hours relative to Form 1 [6]: more than double
Compound: COc1ccc(C(=O)NC2(C(=O)O)Cc3ccccc3C2)cc1OCCc1cccc(C)c1 [Form 3, 2-(4-methoxy-3-(3-methylphenethoxy)benzamido)-2,3-dihydro-1H-indene-2-carboxylic acid]

equilibrium solubility at 24 hours relative to Form 1 [6]: more than double
Compound: COc1ccc(C(=O)NC2(C(=O)O)Cc3ccccc3C2)cc1OCCc1cccc(C)c1 [Form 4, 2-(4-methoxy-3-(3-methylphenethoxy)benzamido)-2,3-dihydro-1H-indene-2-carboxylic acid]

Source: patent US12391640B2, “Process of making a crystalline EDG-2 receptor antagonist” (HORIZON THERAPEUTICS IRELAND DAC, priority 2022, dated 2025)
